Tests used:
MDA-MB-231 tumors = assay: MDA-MB-231 Triple Negative (TN) Breast Cancer Model (xenograft); assay type: in vivo; conditions: nude mice, subcutaneous MDA-MB-231 xenograft; oral QD for up to 26 days, 1 to 5 mg/kg
Procedure: A xenograft study was conducted with MDA-MB-231 tumor-bearing mice. Nude mice were inoculated subcutaneously with MDA-MB-231 cells in the flank region above the right hind leg. Following inoculation of animals, the tumors were allowed to grow to about 150 mm^3 prior to randomization. On Day 38 following tumor cell inoculation, the mice bearing MDA-MB-231 tumors ranging between 65 and 304 mm^3 were pooled together and randomized into various treatment groups. […] The positive control Taxotere (15 mg/kg, Q4D) was administered via the intravenous (IV) route. Taxotere was diluted in saline. Tumors were measured twice a week using calipers and tumor volumes were calculated using the formula of W2 × L / 2 (wherein “W” is tumor width and “L” is tumor length).

BT-20 = assay: Apoptosis assay for BC Cell lines (Caspase 3/7-Glo); assay type: cell-based; conditions: BT-20, TN; 24 hours
Procedure: (§1) Apoptosis assay for BC Cell lines. Prior to testing, cells were grown and expanded in culture flasks to provide sufficient amounts of starting material. Cells were then diluted to their desired densities and added directly to compound-spotted 384-well plates. Cells were allowed to grow for 24 hours in 5% CO2 at 37° C. The apoptotic response was assessed by quantifying the activities of caspase 3 and caspase 7 (Caspase 3/7-Glo) in treated cells and control cells at the 24-hour time point. All data was normalized and represented as a value relative to the DMSO-treated cells. Results were then expressed as CalX, which is the minimum compound concentration required to double the levels of caspase 3/7 relative to those of the DMSO-treated cells during their treatment period.

HCC1806 = assay: as above; assay type: cell-based; conditions: HCC1806, TN; 24 hours
Procedure: as §1

HCC70 = assay: as above; assay type: cell-based; conditions: HCC70, TN; 24 hours
Procedure: as §1

HDQ-P1 = assay: as above; assay type: cell-based; conditions: HDQ-P1, TN; 24 hours
Procedure: as §1

MDA-MB-231 = assay: as above; assay type: cell-based; conditions: MDA-MB-231, TN; 24 hours
Procedure: as §1

MT-3 = assay: as above; assay type: cell-based; conditions: MT-3, TN; 24 hours
Procedure: as §1

DU4475 = assay: as above; assay type: cell-based; conditions: DU4475, TN; 24 hours
Procedure: as §1

MDA-MB-468 = assay: as above; assay type: cell-based; conditions: MDA-MB-468, TN; 24 hours
Procedure: as §1

HS578T = assay: as above; assay type: cell-based; conditions: TN, 24 hours
Procedure: as §1

MB157 = assay: as above; assay type: cell-based; conditions: MB157, TN; 24 hours
Procedure: as §1

HCC38 = assay: as above; assay type: cell-based; conditions: HCC38, TN; 24 hours
Procedure: as §1

MDA-MB-157 = assay: as above; assay type: cell-based; conditions: MDA-MB-157, TN; 24 hours
Procedure: as §1

CAL-51 = assay: as above; assay type: cell-based; conditions: CAL-51, TN; 24 hours
Procedure: as §1

HCC1143 = assay: as above; assay type: cell-based; conditions: HCC1143, TN; 24 hours
Procedure: as §1

CAL-85-1 = assay: as above; assay type: cell-based; conditions: CAL-85-1, TN; 24 hours
Procedure: as §1

CAL-148 = assay: as above; assay type: cell-based; conditions: CAL-148, TN; 24 hours
Procedure: as §1

MDA-MB-436 = assay: as above; assay type: cell-based; conditions: MDA-MB-436, TN; 24 hours
Procedure: as §1

HCC1937 = assay: as above; assay type: cell-based; conditions: HCC1937, TN; 24 hours
Procedure: as §1

CAL-120 = assay: as above; assay type: cell-based; conditions: CAL-120, TN; 24 hours
Procedure: as §1

BT-549 = assay: as above; assay type: cell-based; conditions: BT-549, TN; 24 hours
Procedure: as §1

HCC2157 = assay: as above; assay type: cell-based; conditions: HCC2157, TN; 24 hours
Procedure: as §1

HCC1187 = assay: as above; assay type: cell-based; conditions: HCC1187, TN; 24 hours
Procedure: as §1

CCN1C(=O)CNc2ncc(-c3ccc(-c4nc[nH]n4)nc3C)nc21 [Compound 1, 1-ethyl-7-(2-methyl-6-(1H-1,2,4-triazol-3-yl)pyridin-3-yl)-3,4-dihydropyrazino[2,3-b]pyrazin-2(1H)-one]
tumor growth (MDA-MB-231 tumors): inhibited MDA-MB-231 breast cancer tumor growth | CalX (minimum compound concentration required to double the levels of caspase 3/7) (BT-20): 0.6025 µM | CalX (minimum compound concentration required to double the levels of caspase 3/7) (HCC1806): ≥10 µM | CalX (minimum compound concentration required to double the levels of caspase 3/7) (HCC70): ≥10 µM | CalX (minimum compound concentration required to double the levels of caspase 3/7) (HDQ-P1): ≥10 µM | CalX (minimum compound concentration required to double the levels of caspase 3/7) (MDA-MB-231): ≥10 µM | CalX (minimum compound concentration required to double the levels of caspase 3/7) (MT-3): 2.4106 µM | CalX (minimum compound concentration required to double the levels of caspase 3/7) (DU4475): 0.9448 µM | CalX (minimum compound concentration required to double the levels of caspase 3/7) (MDA-MB-468): ≥10 µM | CalX (minimum compound concentration required to double the levels of caspase 3/7) (HS578T): ≥10 µM | CalX (minimum compound concentration required to double the levels of caspase 3/7) (MB157): ≥10 µM | CalX (minimum compound concentration required to double the levels of caspase 3/7) (HCC38): ≥10 µM | CalX (minimum compound concentration required to double the levels of caspase 3/7) (MDA-MB-157): ≥10 µM | CalX (minimum compound concentration required to double the levels of caspase 3/7) (CAL-51): 0.3611 µM | CalX (minimum compound concentration required to double the levels of caspase 3/7) (HCC1143): ≥10 µM | CalX (minimum compound concentration required to double the levels of caspase 3/7) (CAL-85-1): ≥10 µM | CalX (minimum compound concentration required to double the levels of caspase 3/7) (CAL-148): 0.1583 µM | CalX (minimum compound concentration required to double the levels of caspase 3/7) (MDA-MB-436): ≥10 µM | CalX (minimum compound concentration required to double the levels of caspase 3/7) (HCC1937): ≥10 µM | CalX (minimum compound concentration required to double the levels of caspase 3/7) (CAL-120): ≥10 µM | CalX (minimum compound concentration required to double the levels of caspase 3/7) (BT-549): ≥10 µM | CalX (minimum compound concentration required to double the levels of caspase 3/7) (HCC2157): 1.3472 µM | CalX (minimum compound concentration required to double the levels of caspase 3/7) (HCC1187): 0.6418 µM
